{"source": "ChEMBL document CHEMBL5584353", "about": "“Design, Synthesis, and Biological Evaluation of Potent EZH2/LSD1 Dual Inhibitors for Prostate Cancer” (J Med Chem, 2024)", "key": {"CWR22R [1]": {"test_system": "CWR22R", "test": "Antimigratory activity in human 22Rv1 cells assessed as upregulation of E-cadherin expression at 3 to 10 uM incubated for 48 hrs by Western blotting analysis", "type": "functional, cell-based", "details": "dose 3-10 µM"}, "[2]": {"test": "Toxicity in BALB/c mouse xenografted with human 22Rv1 cells assessed as liver morphological change at 80 mg/kg,ip administrated daily for 31 days", "type": "organism-based, CWR22R", "details": "in vivo, 744 h, time 31 day"}, "[3]": {"target": "T1, Histone-lysine N-methyltransferase EZH1 (Homo sapiens, UniProt Q92800)", "T1 sequence (Q92800 whole entry)": "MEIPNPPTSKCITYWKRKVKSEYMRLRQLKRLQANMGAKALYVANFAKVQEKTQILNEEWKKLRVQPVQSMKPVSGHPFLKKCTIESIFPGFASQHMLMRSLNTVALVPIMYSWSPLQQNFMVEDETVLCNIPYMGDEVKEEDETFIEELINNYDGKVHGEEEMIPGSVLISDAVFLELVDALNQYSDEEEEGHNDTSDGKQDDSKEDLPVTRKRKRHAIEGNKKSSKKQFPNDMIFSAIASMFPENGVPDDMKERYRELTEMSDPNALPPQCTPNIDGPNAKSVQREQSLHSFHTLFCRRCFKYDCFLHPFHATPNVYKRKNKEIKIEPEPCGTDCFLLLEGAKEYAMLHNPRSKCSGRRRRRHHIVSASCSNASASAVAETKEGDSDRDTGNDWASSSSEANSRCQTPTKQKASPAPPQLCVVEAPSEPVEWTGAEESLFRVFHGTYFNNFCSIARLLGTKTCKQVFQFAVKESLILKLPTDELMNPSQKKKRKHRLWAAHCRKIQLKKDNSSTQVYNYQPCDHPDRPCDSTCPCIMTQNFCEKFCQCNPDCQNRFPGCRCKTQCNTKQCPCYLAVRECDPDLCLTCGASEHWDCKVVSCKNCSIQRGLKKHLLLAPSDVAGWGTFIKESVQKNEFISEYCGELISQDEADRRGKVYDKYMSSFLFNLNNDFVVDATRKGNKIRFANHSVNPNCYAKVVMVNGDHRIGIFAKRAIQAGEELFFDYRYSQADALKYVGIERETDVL", "test": "Inhibition of EZH1 (unknown origin)"}, "[4]": {"test": "Toxicity in BALB/c mouse xenografted with human 22Rv1 cells assessed as change in body weight at 80 mg/kg,ip administrated daily for 31 days", "type": "organism-based, CWR22R", "details": "in vivo, 744 h, time 31 day"}, "[5]": {"test": "Toxicity in BALB/c mouse xenografted with human 22Rv1 cells assessed as spleen morphological change at 80 mg/kg,ip administrated daily for 31 days", "type": "organism-based, CWR22R", "details": "in vivo, 744 h, time 31 day"}, "[6]": {"target": "T2, Lysine-specific histone demethylase 1A (Homo sapiens, UniProt O60341)", "test": "Inhibition of LSD1 in human LNCaP cells assessed as upregulation of H3K4me2 expression at 1 to 5 uM incubated for 5 days by Western blotting analysis", "type": "cell-based", "details": "dose 1-5 µM, time 5.0 day"}, "LNCaP": {"test_system": "LNCaP", "test": "Induction of cell cycle arrest in human LNCaP cells assessed as accumulation of cells at G0/G1 phase incubated for 72 hrs by propidium iodide/RNase staining based flow cytometric analysis", "type": "functional"}, "[7]": {"test": "Clearance in BALB/c mouse at 50 mg/kg,po measured upto 24 hrs by HPLC-MS/MS analysis", "type": "ADME, organism-based", "details": "in vivo"}, "BEAS-2B": {"test_system": "BEAS-2B", "test": "Cytotoxicity against human BEAS-2B cells incubated for 6 to 7 days by MTS assay", "type": "toxicity, cell-based", "details": "time 6-7 day"}, "PC-3": {"test_system": "PC-3", "test": "Induction of apoptosis in human PC-3 cells at 1 to 10 uM incubated for 5 days by Annexin V-FITC/PI staining based flow cytometric analysis", "type": "functional, cell-based", "details": "dose 1-10 µM, time 5.0 day"}, "CWR22R [8]": {"test_system": "CWR22R", "test": "Antitumor activity against human 22Rv1 cells xenografted in BALB/c mouse assessed as reduction in tumor weight at 80 mg/kg,ip administrated daily for 31 days", "type": "functional, organism-based", "details": "time 31.0 day"}, "[9]": {"target": "T2, Lysine-specific histone demethylase 1A", "test": "Inhibition of LSD1 in human PC-3 cells assessed as upregulation of H3K9me2 expression at 1 to 5 uM incubated for 5 days by Western blotting analysis", "type": "cell-based", "details": "dose 1-5 µM, time 5.0 day"}, "[10]": {"target": "T2, Lysine-specific histone demethylase 1A", "test": "Inhibition of LSD1 in human LNCaP cells assessed as upregulation of H3K9me2 expression at 1 to 5 uM incubated for 5 days by Western blotting analysis", "type": "cell-based", "details": "dose 1-5 µM, time 5.0 day"}, "[11]": {"test": "Cytotoxicity against human HPNE cells incubated for 6 to 7 days by MTS assay", "type": "toxicity, cell-based", "details": "time 6-7 day"}}, "note": "The source made the active and inactive calls. The rule behind the calls is not given here."}
{"molecule": "CCN(c1cc(-c2ccc([C@@H]3C[C@H]3N(CC3CCOCC3)C(=O)OC(C)(C)C)cc2)cc(C(=O)NCc2c(C)cc(C)[nH]c2=O)c1C)C1CCOCC1", "note": "(racemic)", "values": [{"measurement": "Activity", "setting": "CWR22R [1]", "value": "Active"}, {"measurement": "Activity", "setting": "[2]", "value": "Non-Toxic"}, {"measurement": "IC50", "setting": "[3]", "value": 2160, "unit": "nM"}, {"measurement": "Activity", "setting": "[4]", "value": "Non-Toxic"}, {"measurement": "Activity", "setting": "[5]", "value": "Non-Toxic"}, {"measurement": "inhibition", "setting": "[6]", "value": "Active"}, {"measurement": "Activity", "setting": "LNCaP", "value": "Dose-Dependent Effect"}, {"measurement": "CL/F", "setting": "[7]", "value": 20, "unit": "mL/min/kg"}, {"measurement": "Activity", "setting": "BEAS-2B", "value": "Non-Toxic"}, {"measurement": "Activity", "setting": "PC-3", "value": "Active"}, {"measurement": "Activity", "setting": "CWR22R [8]", "value": "Active"}, {"measurement": "inhibition", "setting": "[9]", "value": "Active"}, {"measurement": "inhibition", "setting": "[10]", "value": "Active"}, {"measurement": "Activity", "setting": "[11]", "value": "Non-Toxic"}]}
